Experimental data as given in patent US20240352066A1, “ANTIMICROBIAL COMPOUNDS AND THE METHOD OF USE” (priority 2021, published 2024).
Converted amounts (≈) assume the structure as drawn. Where a SMILES comes first, the peptide text is derived from it. [ ]: non-standard residue; d: D form. N(tridecyl)Gly = CCCCCCCCCCCCCNCC(=O)O; Gly(N-2-aminoethyl) = NCCNCC(=O)O; Gly(N-cHex) = O=C(O)CNC1CCCCC1; Nleu = CC(C)CNCC(=O)O; Nlys = NCCCCNCC(=O)O

Key:
[1] = Percent acetonitrile at elution during RP-HPLC purification (hydrophobicity); assay type: physicochemical; conditions: percent acetonitrile at the time of elution from HPLC
Excerpt: All RMG8-8 derivatives were synthesized via the solid-phase submonomer synthesis method on polystyrene Rink Amide resin (Zuckermann et al. Journal of the American Chemical Society 114, 10646-10647 (1992)). The amines used during synthesis and the peptoid shorthand notations for each monomer are provided in Table 7 and Table 8, respectively. Compounds were purified to greater than 95% by RP-HPLC and compound identity was confirmed by ESI-TOF MS (Table 9). The calculated distribution coefficient at pH 7.4 (c Log D7.4) (via Chemaxon. MarvinSketch 19.17.0, 2019) and the percent acetonitrile at the time of elution during HPLC purification were recorded and serve as measures of hydrophobicity (Table 10). Higher values for c Log D7.4 and percent acetonitrile are indicators of increased compound hydrophobicity. With antimicrobial peptoids, hydrophobicity is directly related to both antimicrobial activity and cytotoxicity (Andreev et al. Biochimica et biophysica acta. Biomembranes 1860 6, 1414-1423 (2018); Bolt et al. Med chem comm 8, 886-896 (2017); Frederiksen et al. Molecules 24, (2019)). The ideal balance of these parameters generally must be determined experimentally. To measure antifungal activity, the minimum inhibitory concentration (MIC), defined as the concentration of compound required to inhibit 90% of fungal growth, was determined against C. neoformans using the broth microdilution method. Mammalian cytotoxicity was evaluated through a cell metabolic activity assay with HepG2 liver carcinoma cells, and select, potentially promising compounds were tested for unwanted hemolytic activity against human red blood cells.
Peptoids were purified via Reversed-Phase High-Performance Liquid Chromatography (RP-HPLC) using a Varian Prepstar SD-1. A gradient of 0-100% water to acetonitrile containing 0.05% TFA made up the mobile phase, and a Supelco Ascentis C18 column (5 μm; 25 cm×21.2 mm; Sigma-Aldrich 581347-U) was used as the stationary phase. Peaks in the chromatogram above 0.1 AU were collected and analyzed via mass spectrometry. The peak product with the desired peptoid was dried down in vacuo and lyophilized overnight. Peptoids were then reconstituted in sterile […] deionized water to create compound stocks of 20 mg/mL.

C. albicans biofilm = assay type: cell-based, Candida albicans; conditions: 24 h
Protocol: Plates were incubated overnight at 37° C. Media was gently removed and gently washed three times with PBS. RPMI-MOPS (198 μL) were added to each well. 2-fold serial dilutions of 100× peptoid solutions were prepared in water and 2 μL of peptoid were added to each well in triplicate then incubated at 37° C. for 24 hours. PrestoBlue (20 μL) was added to each well and incubated at 37° C. for one hour before measuring fluorescence on a SpectraMax M5 plate reader (Ex. 555 nm; Em. 585 nm).

A. baumannii = assay type: cell-based, Acinetobacter baumannii; conditions: 24 h
Protocol: The minimum inhibitory concentration (MIC) of peptoids against the ESKAPE bacteria (Enterococcus faecium ATCC 6569; Staphylococcus aureus ATCC 29213; Klebsiella pneumoniae ATCC 13883; Acinetobacter 55aumannii ATCC 19606; Pseudomonas aeruginosa ATCC 25619; Enterococcus faecalis ATCC 29212; and Escherichia coli ATCC 25922) was determined following CLSI guidelines (CLSI. Methods for Dilution Antimicrobial Susceptibility Tests for Bacteria That Grow Aerobically, 11th Edition. (Clinical and Laboratory Standards Institute, 2018). The MIC against Mycobacterium smegmatis was also determined following CLSI guidelines (Woods et al., Susceptibility Testing of Mycobacteria, Nocardiae, and Other Aerobic Actinomycetes, 2nd edition. (2011)). Colonies picked from streaked tryptic soy agar plates were added to tryptic soy broth (TSB) to achieve a turbidity of OD600=0.08-0.15. Inoculant was diluted 1:200 into cation adjust Mueller Hinton Broth (CAVHB) and 90 μL was plated into each well of a 96 well black-wall plate. […] Following incubation for the ESKAPE bacteria, PrestoBlue (10 μL) was added to each well and incubated at 37° C. for one hour before measuring fluorescence on a SpectraMax M5 plate reader (Ex. 555 nm; Em. 585 nm). Following incubation for M. smegmatis, wells were scored following CLSI guidelines to determine MIC. […]

[2] = tested on: Enterococcus faecalis ATCC 29212; assay type: cell-based; conditions: ATCC 29212, 24 h
Protocol: (§1) The minimum inhibitory concentration (MIC) of peptoids against the ESKAPE bacteria (Enterococcus faecium ATCC 6569; Staphylococcus aureus ATCC 29213; Klebsiella pneumoniae ATCC 13883; Acinetobacter 55aumannii ATCC 19606; Pseudomonas aeruginosa ATCC 25619; Enterococcus faecalis ATCC 29212; and Escherichia coli ATCC 25922) was determined following CLSI guidelines (CLSI. Methods for Dilution Antimicrobial Susceptibility Tests for Bacteria That Grow Aerobically, 11th Edition. (Clinical and Laboratory Standards Institute, 2018). The MIC against Mycobacterium smegmatis was also determined following CLSI guidelines (Woods et al., Susceptibility Testing of Mycobacteria, Nocardiae, and Other Aerobic Actinomycetes, 2nd edition. (2011)). Colonies picked from streaked tryptic soy agar plates were added to tryptic soy broth (TSB) to achieve a turbidity of OD600=0.08-0.15. Inoculant was diluted 1:200 into cation adjust Mueller Hinton Broth (CAVHB) and 90 μL was plated into each well of a 96 well black-wall plate. 2-fold serial dilutions of 10× peptoid (10 μL) were added to each well in triplicate and incubated at 37° C. for 24 hours for the ESKAPE bacteria and 72 hours for M. smegmatis. Tetracycline (20 μg/mL) was used as a positive control with DI water was used as a vehicle control. Following incubation for the ESKAPE bacteria, PrestoBlue (10 μL) was added to each well and incubated at 37° C. for one hour before measuring fluorescence on a SpectraMax M5 plate reader (Ex. 555 nm; Em. 585 nm). Following incubation for M. smegmatis, wells were scored following CLSI guidelines to determine MIC. This assay was repeated three times on separate days.

[3] = tested on: Enterococcus faecium ATCC 6569; assay type: cell-based; conditions: ATCC 6569, 24 h
Protocol: as §1

[4] = tested on: Escherichia coli ATCC 25922; assay type: cell-based; conditions: ATCC 25922, 24 h
Protocol: as §1

[5] = tested on: Klebsiella pneumoniae ATCC 13883; assay type: cell-based; conditions: ATCC 13883, 24 h
Protocol: as §1

Mycobacterium smegmatis = assay type: cell-based; conditions: 72 h
Protocol: as §1

[6] = tested on: Pseudomonas aeruginosa ATCC 25619; assay type: cell-based; conditions: ATCC 25619, 24 h
Protocol: as §1

[7] = tested on: Staphylococcus aureus ATCC 29213; assay type: cell-based; conditions: ATCC 29213, 24 h
Protocol: as §1

HaCat keratinocyte cells = assay: in vitro; assay type: cell-based, human
Protocol: Hepatocellular carcinoma (HepG2), mouse fibroblast (3T3), human lung (HPL1A), and human keratinocyte (HaCat) cells were cultured in Dulbecco modified eagle media (DMEM) containing 10% fetal bovine serum (FBS) and 1% penicillin, streptomycin, and glutamine (PSG) at 37° C. and 5% CO2. Cells were collected and adjusted to […] to 4×10^5 cells/mL in phenol-red free DMEM and plated (100 μL) 96 well plates. 2-fold serial dilutions of 10× peptoid (11.1 μL) were added to each well in triplicate. Water (vehicle) was used as a negative control. Plates were incubated at 37° C. in 5% CO2 for 72 hours. Thiazolyl blue tetrazolium bromide (MTT) was added to each well (5 mg/mL; 20 μL) and incubated for 3 hours. Media was removed, DMSO (100 μL) was added, and plates were incubated at 37° C. for 10 minutes. Plates were read on a SpectraMax M5 plate reader (Abs. 570 nm). The concentration of compound resulting in a 50% reduction in growth compared to control (toxicity dose 50%; TD50) was determined using GraFit. This procedure was repeated three times on separate days.

Row | SMILES | % ACN [1] [%] | MIC C. albicans biofilm (MBIC) (C. albicans biofilm) [µg/mL] | MIC A. baumannii (A. baumannii) [µg/mL] | MIC E. faecalis [2] [µg/mL] | MIC E. faecium [3] [µg/mL] | MIC E. coli [4] [µg/mL] | MIC K. pneumoniae [5] [µg/mL] | MIC M. smegmatis (Mycobacterium smegmatis) [µg/mL] | MIC P. aeruginosa [6] [µg/mL] | MIC S. aureus [7] [µg/mL] | TD50 HaCat (HaCat keratinocyte cells) [µg/mL] | MIC C. neoformans after incubation with human serum (C. neoformans) [µg/mL] | MIC C. neoformans, stock not incubated with human serum (C. neoformans) [µg/mL]
1 | CCCCCCCCCCCCCNCC(=O)N(CC(=O)N(CCCCN)CC(=O)N(CCN)CC(=O)N(CC(N)=O)CC(C)C)CC(C)C [Compound 9] (H-[N(tridecyl)Gly][Nleu][Nlys][Gly(N-2-aminoethyl)][Nleu]-NH2) | 68.1 | – | – | – | – | – | – | – | – | – | – | – | –
2 | CCCCCCCCCCCCCNCC(=O)N(CC(=O)N(CCCCN)CC(=O)N(CCN)CC(=O)N(CC(N)=O)C1CCCCC1)C1CCCCC1 [RMG8-8, Ntri-Ncha-Nlys-Nae-Ncha] (H-[N(tridecyl)Gly][Gly(N-cHex)][Nlys][Gly(N-2-aminoethyl)][Gly(N-cHex)]-NH2) | – | 100 (≈ 131 µM) | 25 (≈ 32.8 µM) | 6.25 (≈ 8.19 µM) | 6.25 (≈ 8.19 µM) | 12.5 (≈ 16.4 µM) | 100 (≈ 131 µM) | 3.13 to 6.25 | 100 (≈ 131 µM) | 6.25 (≈ 8.19 µM) | 54 | 3.13 | 1.56
